Activity calls are given as the source filed them.
Columns and labels:
[1] = target: T1, Ubiquitin-conjugating enzyme E2 N (Homo sapiens, UniProt P61088); assay type: functional;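 further: Dose-response confirmation in a TR-FRET assay detecting UBC13-driven polyubiquitin chain formation, inhibition measured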
T1 sequence (P61088 whole entry): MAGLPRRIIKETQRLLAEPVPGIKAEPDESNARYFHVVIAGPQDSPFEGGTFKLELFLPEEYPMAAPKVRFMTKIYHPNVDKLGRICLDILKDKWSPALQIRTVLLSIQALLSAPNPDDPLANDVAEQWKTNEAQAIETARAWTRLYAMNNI

[2] = target: Cytochrome P450 2C9 (Homo sapiens, UniProt P11712)
[3] = target: T2, Cytochrome P450 1A2 (Homo sapiens, UniProt P05177);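 further: PubChem cytochrome P450 panel assay, CYP1A2 panel member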
T2 sequence (P05177 whole entry): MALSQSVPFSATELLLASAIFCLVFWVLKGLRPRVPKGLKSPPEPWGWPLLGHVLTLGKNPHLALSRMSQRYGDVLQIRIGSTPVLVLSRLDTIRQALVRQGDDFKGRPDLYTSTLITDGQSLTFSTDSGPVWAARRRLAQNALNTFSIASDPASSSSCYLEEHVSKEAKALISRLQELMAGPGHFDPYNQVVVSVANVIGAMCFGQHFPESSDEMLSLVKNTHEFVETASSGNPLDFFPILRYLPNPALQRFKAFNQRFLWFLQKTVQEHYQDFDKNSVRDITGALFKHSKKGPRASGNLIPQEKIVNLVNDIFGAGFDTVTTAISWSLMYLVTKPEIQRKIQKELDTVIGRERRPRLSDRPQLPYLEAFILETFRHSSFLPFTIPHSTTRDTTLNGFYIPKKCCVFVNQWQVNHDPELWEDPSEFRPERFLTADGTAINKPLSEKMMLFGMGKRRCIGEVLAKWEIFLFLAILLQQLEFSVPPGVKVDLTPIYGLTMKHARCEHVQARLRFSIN

[4] = cells; assay type: functional, cell-based
[5] = cells; assay type: functional, cell-based; remark: listed apart in the source
[6] = target: Cytochrome P450 2C19 (Homo sapiens, UniProt P33261); assay: Cytochrome panel assay with activity outcomes. Panel member name: p450-cyp2c19 Compounds with AC50 equal or less than 10 uM are considered active; assay type: functional; settings: read-out: AC50
[7] = target: T3, Leucine aminopeptidase (Plasmodium falciparum 3D7, UniProt Q8IL11); assay: P. falciparum M17LAP inhibitors, primary screen, biochemical, fluorogenic H-Leu-NHMec substrate, 1536-well (AID 1619); assay type: functional
T3 sequence (Q8IL11 whole entry): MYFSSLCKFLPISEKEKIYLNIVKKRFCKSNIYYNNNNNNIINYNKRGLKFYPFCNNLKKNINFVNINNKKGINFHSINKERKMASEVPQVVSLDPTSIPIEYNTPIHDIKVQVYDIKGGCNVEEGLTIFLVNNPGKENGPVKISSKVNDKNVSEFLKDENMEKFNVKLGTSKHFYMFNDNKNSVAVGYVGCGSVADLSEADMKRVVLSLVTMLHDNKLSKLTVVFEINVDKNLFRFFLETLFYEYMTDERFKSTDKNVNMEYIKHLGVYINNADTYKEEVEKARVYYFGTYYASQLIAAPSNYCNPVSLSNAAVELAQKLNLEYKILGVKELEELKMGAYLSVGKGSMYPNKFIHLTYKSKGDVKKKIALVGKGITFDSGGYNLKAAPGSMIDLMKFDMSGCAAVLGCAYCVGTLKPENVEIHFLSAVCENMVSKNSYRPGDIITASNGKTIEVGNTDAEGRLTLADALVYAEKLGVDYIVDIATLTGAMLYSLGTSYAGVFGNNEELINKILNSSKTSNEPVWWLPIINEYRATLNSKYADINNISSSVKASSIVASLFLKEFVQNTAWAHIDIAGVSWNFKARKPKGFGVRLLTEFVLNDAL

[8] = HepG2 cell cytotoxicity, dose response, cytotoxicity control for Shn3 inhibitor project, CellTiter-Glo, cherry-picked (AID 624134); assay type: functional, cell-based
[9] = cells; assay type: functional
[10] = Shn3 3'UTR reporter inhibitors, dose response, cell-based, Clone20 osteoblasts, firefly luciferase, cherry-picked (AID 624132); assay type: functional;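 further: firefly luciferase luminescence from reporter carrying the Shn3 3'UTR in osteoblasts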
[11] = control 3'UTR Renilla luciferase suppression, dose response, counter-screen for Shn3 inhibitor project, cell-based, Clone20-Shn3RL, cherry-picked (AID 624133); assay type: functional
[12] = HEK293 cell cytotoxicity, dose response, cytotoxicity control, plate reader, cherry-picked samples (AID 743446); assay type: functional, cell-based
[13] = MC4R antagonists, dose response, counter-screen for LGR2 antagonist project, cell-based, plate reader, cherry pick (AID 743444); assay type: functional;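 further: transfected HEK 293 cells stimulated with alpha-MSH peptide; potency of inhibitors of the alpha-MSH evoked signal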
[14] = A549 cell cytotoxicity, dose response, cytotoxicity control, plate reader, cherry-pick, antagonist series (AID 743412); assay type: functional, cell-based
[15] = HepG2 cell cytotoxicity, dose response, cytotoxicity control, plate reader, cherry-pick, antagonist series (AID 743416); assay type: functional, cell-based
[16] = LGR2 antagonists, dose response, cell-based, HEK293, CRE-luciferase reporter, cherry pick, set 2 (AID 743343); assay type: functional;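 further: transfected cells were stimulated with diluted bursicon conditioned medium after compound addition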
[17] = growth suppression of beta-catenin-knockout colon cells, dose response, cell-based, HCT116, human colon tumor (AID 1045); assay type: functional;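 further: HCT116 colon tumor cells with beta catenin knocked out; cells exposed to compound for 60 hours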
[18] = growth suppression of PTEN-null colon cells, dose response, cell-based, HCT116 PTEN knockout (AID 1047); assay type: functional;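 further: HCT116 colon tumor cells with PTEN knocked out; cells exposed to compound for 60 hours before readout; potency for loss of cell viability measured by luminescence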
[19] = target: T4, Calpain-2 catalytic subunit (Sus scrofa, UniProt P43367); assay: pig calpain II inhibitor potency, dose response, biochemical, fluorogenic peptide substrate (AID 1420); assay type: functional
T4 sequence (P43367 whole entry): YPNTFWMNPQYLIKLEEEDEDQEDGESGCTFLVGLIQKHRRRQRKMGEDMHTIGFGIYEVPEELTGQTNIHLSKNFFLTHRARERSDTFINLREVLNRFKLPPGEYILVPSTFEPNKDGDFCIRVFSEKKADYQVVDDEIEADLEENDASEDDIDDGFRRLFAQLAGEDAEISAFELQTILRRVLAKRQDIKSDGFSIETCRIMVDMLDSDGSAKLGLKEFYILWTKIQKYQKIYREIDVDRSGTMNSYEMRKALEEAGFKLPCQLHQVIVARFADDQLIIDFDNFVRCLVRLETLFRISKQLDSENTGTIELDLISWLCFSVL

[20] = C. albicans growth with fluconazole, confirmation, fluorescence, retest (AID 2467); assay type: functional, cell-based
[21] = NIH-3T3 fibroblast cytotoxicity, dose response, cytotoxicity control, cell-based, fluorescence, Alamar Blue, secondary assay (AID 2327); assay type: functional;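 further: NIH-3T3 mouse fibroblasts cultured with fluconazole at 8 µg/mL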
[22] = target: T5, Rac GTPase-activating protein 1 (Homo sapiens, UniProt Q9H0H5); assay: MgcRacGAP GTPase-activating activity inhibitors, confirmation, biochemical, ADP Hunter fluorescence, primary and confirmatory (AID 624330); assay type: functional
T5 sequence (Q9H0H5 whole entry): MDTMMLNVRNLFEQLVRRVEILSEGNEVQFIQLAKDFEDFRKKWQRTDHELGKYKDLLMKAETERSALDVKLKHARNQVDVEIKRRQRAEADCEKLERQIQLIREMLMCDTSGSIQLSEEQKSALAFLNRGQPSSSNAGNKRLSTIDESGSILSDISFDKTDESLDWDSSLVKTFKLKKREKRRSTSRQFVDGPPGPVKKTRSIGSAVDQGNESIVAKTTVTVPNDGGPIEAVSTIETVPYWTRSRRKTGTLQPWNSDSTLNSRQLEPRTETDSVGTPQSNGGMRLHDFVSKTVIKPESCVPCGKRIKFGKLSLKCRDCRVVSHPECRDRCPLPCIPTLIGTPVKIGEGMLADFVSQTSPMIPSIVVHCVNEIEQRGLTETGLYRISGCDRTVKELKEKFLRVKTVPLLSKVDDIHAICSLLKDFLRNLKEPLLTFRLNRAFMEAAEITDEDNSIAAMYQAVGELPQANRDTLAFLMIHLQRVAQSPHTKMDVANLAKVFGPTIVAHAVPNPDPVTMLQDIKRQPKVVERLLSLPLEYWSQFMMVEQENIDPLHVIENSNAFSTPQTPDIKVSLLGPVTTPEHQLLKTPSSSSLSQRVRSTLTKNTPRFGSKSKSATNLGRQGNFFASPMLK

Cytochrome P450 2C9, sequence (P11712 whole entry): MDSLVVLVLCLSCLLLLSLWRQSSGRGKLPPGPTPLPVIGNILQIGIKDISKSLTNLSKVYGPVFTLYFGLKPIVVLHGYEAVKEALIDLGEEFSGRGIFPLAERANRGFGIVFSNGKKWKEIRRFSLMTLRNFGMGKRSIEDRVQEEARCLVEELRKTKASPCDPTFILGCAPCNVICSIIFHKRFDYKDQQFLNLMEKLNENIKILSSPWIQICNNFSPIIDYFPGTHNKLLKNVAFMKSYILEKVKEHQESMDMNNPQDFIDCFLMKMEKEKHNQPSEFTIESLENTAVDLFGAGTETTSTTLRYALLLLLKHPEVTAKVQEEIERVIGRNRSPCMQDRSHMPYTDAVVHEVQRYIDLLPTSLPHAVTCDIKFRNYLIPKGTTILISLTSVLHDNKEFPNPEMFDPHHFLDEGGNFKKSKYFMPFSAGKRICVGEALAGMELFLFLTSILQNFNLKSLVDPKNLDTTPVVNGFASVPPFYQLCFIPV
Cytochrome P450 2C19, sequence (P33261 whole entry): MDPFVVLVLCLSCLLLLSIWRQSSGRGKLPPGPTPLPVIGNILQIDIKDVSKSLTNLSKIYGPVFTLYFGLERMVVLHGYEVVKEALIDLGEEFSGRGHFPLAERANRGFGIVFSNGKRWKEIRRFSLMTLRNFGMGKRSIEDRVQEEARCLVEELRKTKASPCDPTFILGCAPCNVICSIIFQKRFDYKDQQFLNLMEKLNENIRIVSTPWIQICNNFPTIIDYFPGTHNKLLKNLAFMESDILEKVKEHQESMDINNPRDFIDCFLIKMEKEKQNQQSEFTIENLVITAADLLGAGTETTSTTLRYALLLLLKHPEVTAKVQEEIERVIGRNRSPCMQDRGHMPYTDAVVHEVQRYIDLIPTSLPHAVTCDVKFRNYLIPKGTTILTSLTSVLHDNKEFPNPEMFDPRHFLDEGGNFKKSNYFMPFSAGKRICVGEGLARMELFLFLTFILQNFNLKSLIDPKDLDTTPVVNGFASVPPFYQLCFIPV

**Q.** Which IC50 [1] does the source give for COc1ccccc1[C@@H]1C(c2cccc(C)c2)=NN(c2ccccc2)[C@H]1C(=O)N1CCOC1=O here?
**A.** Its IC50 is > 20 µM (inactive).

**Q.** With Cc1ccc(C(=O)O/N=C/c2c(Cl)n(C)c3ccccc23)cc1 as the compound, how does the AC50 [2] read?
**A.** The AC50 was “inconclusive”.

**Q.** What about the AC50 [3] of the same compound?
**A.** The AC50 was 1.12 µM (inconclusive).

**Q.** Which EC50 [4] does the source give for CC(C)=NOC(=O)c1c(C)noc1-c1snnc1C here?
**A.** Its EC50 is > 350 µM (not active).

**Q.** What about the EC50 [5] of the same compound?
**A.** The EC50 was > 350 µM (not active).

**Q.** With C[C@H](NC(=O)/C(C#N)=C/c1ccc(O)c(O)c1)c1ccccc1 as the compound, how does the AC50 [2] read?
**A.** Its AC50 is “inconclusive”.

**Q.** What about the AC50 [6] of the same compound?
**A.** The AC50 was 31.6 µM (inconclusive).

**Q.** With CCSc1nnc(-c2ccccc2/N=C/c2c(C)nn(-c3ccccc3)c2O)c(O)n1 as the compound, how does the IC50 [7] read?
**A.** The IC50 was 39.6 µM (active).

**Q.** For CCCN1C(=O)S/C(=C\c2ccc(N3CCOCC3)o2)C1=O, which AC50 [8] is on record?
**A.** Its AC50 is > 70 µM (inactive).

**Q.** What about the IC50 [9] of the same compound?
**A.** Its IC50 is 21.9 µM (active).

**Q.** And the AC50 [10]?
**A.** The AC50 was 6.37 µM (active).

**Q.** And the AC50 [11]?
**A.** Its AC50 is 25.8 µM (active).

**Q.** With CCc1ccc(C(=O)CSc2n[nH]c(C)n2)cc1 as the compound, how does the IC50 [7] read?
**A.** The IC50 was 63.4 µM (active).

**Q.** With COc1ccccc1C#Cc1ccc([C@H]2[C@H](C#N)N(C(=O)C3CCCCC3)[C@H]2CO)cc1 as the compound, how does the AC50 [12] read?
**A.** Its AC50 is 9.53 µM (active).

**Q.** What about the AC50 [13] of the same compound?
**A.** Its AC50 is 5.75 µM (active).

**Q.** And the AC50 [14]?
**A.** The AC50 was 24.5 µM (active).

**Q.** What about the AC50 [15] of the same compound?
**A.** Its AC50 is 43.7 µM (active).

**Q.** What about the AC50 [16] of the same compound?
**A.** Its AC50 is 5.49 µM (active).

**Q.** For COc1ccc(CN2C(=O)c3cccc4cccc2c34)cc1F, which IC50 [1] is on record?
**A.** The IC50 was > 20 µM (inactive).

**Q.** For O=C(CSc1nc(-c2ccco2)cc(C(F)(F)F)n1)Nc1ccc(C(=O)N2CCCCC2)cc1, which AC50 [8] is on record?
**A.** Its AC50 is 51 µM (active).

**Q.** What about the EC50 [17] of the same compound?
**A.** Its EC50 is 28.8 µM (active).

**Q.** What about the EC50 [18] of the same compound?
**A.** The EC50 was 62.7 µM (active).

**Q.** And the AC50 [10]?
**A.** Its AC50 is 2.87 µM (active).

**Q.** And the AC50 [11]?
**A.** The AC50 was 0.774 µM (active).

**Q.** With N#CCCn1c(=O)c(-c2ccc(Cl)cc2)nc2cnc(N3CCOCC3)nc21 as the compound, how does the AC50 [2] read?
**A.** The AC50 was “inconclusive”.

**Q.** With O=C(c1ccc(Cl)cc1Cl)N1CCC(c2nc(O)c3nnn(Cc4ccco4)c3n2)CC1 as the compound, how does the IC50 [19] read?
**A.** Its IC50 is > 50 µM (not active).

**Q.** With C=CCNC(=S)N/N=C/c1ccc(C)s1 as the compound, how does the IC50 [19] read?
**A.** Its IC50 is 27.1 µM (not active).

**Q.** Which EC50 [4] does the source give for CC(=O)Nc1ccc(Nc2nc(C)c([N+](=O)[O-])c(Nc3ccc(NC(C)=O)cc3)n2)cc1 here?
**A.** The EC50 was > 350 µM (not active).

**Q.** And the EC50 [5]?
**A.** The EC50 was > 350 µM (not active).

**Q.** Which IC50 [7] does the source give for CCOc1ccc(Nc2nc(Cc3nnc(SCC(=O)O)o3)cs2)cc1 here?
**A.** Its IC50 is 7.08 µM (active).

**Q.** Which AC50 [2] does the source give for CCCCN1CCC(n2c(=O)[nH]c3ccccc32)CC1 here?
**A.** The AC50 was “inconclusive”.

**Q.** With Cn1c(=O)c2c(ncn2Cc2ccc(Cl)cc2)n(C)c1=O as the compound, how does the IC50 [1] read?
**A.** Its IC50 is > 20 µM (inactive).

**Q.** For Cc1sc(NC(=O)C2CC=CCC2C(=O)O)c(C(=O)OC(C)C)c1C (stereo unspecified), which IC50 [7] is on record?
**A.** Its IC50 is 24.1 µM (active).

**Q.** Which EC50 [20] does the source give for C/C(=N\NC(=O)CSCc1ccccc1Cl)c1cc(O)ccc1O here?
**A.** Its EC50 is > 38 µM (not active).

**Q.** What about the EC50 [21] of the same compound?
**A.** Its EC50 is > 160 µM (inactive).

**Q.** And the IC50 [22]?
**A.** The IC50 was 24.3 µM (active).

Source: ChEMBL document CHEMBL1201862, “PubChem BioAssay data set” (2004)
